Target: T1, renin (Homo sapiens, UniProt P00797)
T1 sequence (P00797 67-406): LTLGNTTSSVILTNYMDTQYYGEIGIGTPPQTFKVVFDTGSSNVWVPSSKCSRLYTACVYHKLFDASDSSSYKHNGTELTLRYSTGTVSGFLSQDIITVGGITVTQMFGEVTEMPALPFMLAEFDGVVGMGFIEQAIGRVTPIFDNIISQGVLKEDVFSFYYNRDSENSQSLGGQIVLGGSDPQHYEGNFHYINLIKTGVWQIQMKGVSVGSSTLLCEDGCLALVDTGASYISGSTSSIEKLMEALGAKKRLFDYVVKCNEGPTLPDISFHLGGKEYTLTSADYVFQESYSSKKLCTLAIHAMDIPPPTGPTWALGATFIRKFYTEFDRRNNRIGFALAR
Experiment: in vitro renin inhibitory activity, radioimmunoassay for angiotensin I
Type: biochemical
Conditions: renin incubated two hours at 37° with substrate angiotensinogen; angiotensin I measured by radioimmunoassay
Description: The effectiveness of the aforementioned compounds is determined by a test for in vitro renin inhibitory activity. This activity is determined by a standard radioimmunoassay for angiotensin I. In this assay the enzyme, renin, incubated for two hours at 37° in the presence of a substrate, angiotensinogen, generates the product, angiotensin I. Test compounds are added to the incubation mixture. Relative activity is reported as the IC50, which is the molar concentration of test compound causing a 50% inhibition of the renin activity.

For “BOC-PHE-LEU-STA-GLN-PRO-OCH3 [Example 8]”, which IC50 is on record?
Its IC50 is 1100 nM.
